# Experimental data reported in ChEMBL document CHEMBL1201862, “PubChem BioAssay data set” (2004).
#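 Protocol summary: plate cells (96-well), add compound at 5 concentrations, incubate 48 h, interpolate endpoints linearly. GI50 is the concentration that inhibits growth by half.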 Activity calls are given as the source filed them. No stated cut-off is given here; in the data, active = GI50 up to about 1.1 µM and inactive = higher.
# Columns and labels:
# Experiment in all cases: NCI tumour cell line growth inhibition, 48 h
# RXF 393 = tested on: RXF 393
# T47D = tested on: T47D
# UO-31 = tested on: UO-31
# SF-539 = tested on: SF-539
# PC-3 = tested on: PC-3
# NCI-H226 = tested on: NCI-H226
# CCRF-CEM = tested on: CCRF-CEM
# UACC-62 = tested on: UACC-62
# NCI-H522 = tested on: NCI-H522
# A498 = tested on: A498
# NCI-H23 = tested on: NCI-H23
# M14 = tested on: M14
# U-251 = tested on: U-251
# 786-0 = tested on: 786-0
# EKVX = tested on: EKVX
# Hs-578T = tested on: Hs-578T
# Malme-3M = tested on: Malme-3M
# CAKI-1 = tested on: CAKI-1
# OVCAR-4 = tested on: OVCAR-4
# MDA-MB-231 = tested on: MDA-MB-231
# HOP-62 = tested on: HOP-62
# SK-OV-3 = tested on: SK-OV-3
# NCI-H460 = tested on: NCI-H460
# SF-268 = tested on: SF-268
# OVCAR-8 = tested on: OVCAR-8
# OVCAR-5 = tested on: OVCAR-5
# KM12 = tested on: KM12
# A549 = tested on: A549
# SK-MEL-2 = tested on: SK-MEL-2
# HCT-15 = tested on: HCT-15
# SK-MEL-28 = tested on: SK-MEL-28
# MDA-N = tested on: MDA-N
# UACC-257 = tested on: UACC-257
# SN12C = tested on: SN12C
# SR = tested on: SR
# SNB-19 = tested on: SNB-19
# BT-549 = tested on: BT-549
# TK-10 = tested on: TK-10
# HCT-116 = tested on: HCT-116
# OVCAR-3 = tested on: OVCAR-3
# DU-145 = tested on: DU-145
# MDA-MB-435 = tested on: MDA-MB-435
# K562 = tested on: K562
# HCC 2998 = tested on: HCC 2998
# SW-620 = tested on: SW-620
# HT-29 = tested on: HT-29
# ACHN = tested on: ACHN
# MOLT-4 = tested on: MOLT-4
# LOX IMVI = tested on: LOX IMVI
# RPMI-8226 = tested on: RPMI-8226
# SNB-75 = tested on: SNB-75
# IGROV-1 = tested on: IGROV-1
# HOP-92 = tested on: HOP-92
# NCI/ADR-RES = tested on: NCI/ADR-RES
# HL-60 = tested on: HL-60
# COLO 205 = tested on: COLO 205
# SF-295 = tested on: SF-295
# SK-MEL-5 = tested on: SK-MEL-5
smiles,measurement,setting,value
CN(C)c1c(C2OC(CO)C(O)C2O)c(=O)c1=O (centres undefined),GI50,RXF 393,> 100 µM (inactive)
same,GI50,T47D,> 100 µM (inactive)
same,GI50,UO-31,> 100 µM (inactive)
same,GI50,SF-539,< 0.01 µM (active)
same,GI50,PC-3,> 100 µM (inactive)
same,GI50,NCI-H226,> 100 µM (inactive)
same,GI50,CCRF-CEM,82.2 µM (inactive)
same,GI50,UACC-62,> 100 µM (inactive)
same,GI50,NCI-H522,> 100 µM (inactive)
same,GI50,A498,> 100 µM (inactive)
same,GI50,NCI-H23,> 100 µM (inactive)
same,GI50,M14,> 100 µM (inactive)
same,GI50,U-251,> 100 µM (inactive)
same,GI50,786-0,> 100 µM (inactive)
same,GI50,EKVX,> 100 µM (inactive)
same,GI50,Hs-578T,> 100 µM (inactive)
same,GI50,Malme-3M,> 100 µM (inactive)
same,GI50,CAKI-1,> 100 µM (inactive)
same,GI50,OVCAR-4,> 100 µM (inactive)
same,GI50,MDA-MB-231,> 100 µM (inactive)
same,GI50,HOP-62,> 100 µM (inactive)
same,GI50,SK-OV-3,> 100 µM (inactive)
same,GI50,NCI-H460,> 100 µM (inactive)
same,GI50,SF-268,> 100 µM (inactive)
same,GI50,OVCAR-8,> 100 µM (inactive)
same,GI50,OVCAR-5,> 100 µM (inactive)
same,GI50,KM12,> 100 µM (inactive)
same,GI50,A549,> 100 µM (inactive)
same,GI50,SK-MEL-2,> 100 µM (inactive)
same,GI50,HCT-15,> 100 µM
same,GI50,SK-MEL-28,> 100 µM (inactive)
same,GI50,MDA-N,> 100 µM (inactive)
same,GI50,UACC-257,> 100 µM (inactive)
same,GI50,SN12C,> 100 µM (inactive)
same,GI50,SR,> 100 µM (inactive)
same,GI50,SNB-19,> 100 µM (inactive)
same,GI50,BT-549,> 100 µM (inactive)
same,GI50,TK-10,> 100 µM (inactive)
same,GI50,HCT-116,> 100 µM (inactive)
same,GI50,OVCAR-3,> 100 µM (inactive)
same,GI50,DU-145,> 100 µM (inactive)
same,GI50,MDA-MB-435,> 100 µM (inactive)
same,GI50,K562,> 100 µM (inactive)
same,GI50,HCC 2998,> 100 µM (inactive)
same,GI50,SW-620,> 100 µM (inactive)
same,GI50,HT-29,> 100 µM (inactive)
same,GI50,ACHN,> 100 µM (inactive)
same,GI50,MOLT-4,> 100 µM (inactive)
same,GI50,LOX IMVI,> 100 µM (inactive)
same,GI50,RPMI-8226,> 100 µM (inactive)
same,GI50,SNB-75,> 100 µM (inactive)
same,GI50,IGROV-1,> 100 µM (inactive)
same,GI50,HOP-92,> 100 µM (inactive)
same,GI50,NCI/ADR-RES,> 100 µM (inactive)
COC(=O)Cc1c(C2=Nc3ccccc3C2(O)CC(=O)OC)[nH]c2ccccc12 (centres undefined),GI50,RXF 393,97.9 µM (inactive)
same,GI50,T47D,15.5 µM (inactive)
same,GI50,UO-31,68.5 µM (inactive)
same,GI50,SF-539,29.6 µM (inactive)
same,GI50,HL-60,22 µM (inactive)
same,GI50,PC-3,30 µM (inactive)
same,GI50,NCI-H226,> 100 µM (inactive)
same,GI50,CCRF-CEM,20.1 µM (inactive)
same,GI50,UACC-62,> 100 µM (inactive)
same,GI50,NCI-H522,18.9 µM (inactive)
same,GI50,A498,> 100 µM (inactive)
same,GI50,NCI-H23,> 100 µM (inactive)
same,GI50,M14,78.2 µM (inactive)
same,GI50,U-251,34.5 µM (inactive)
same,GI50,786-0,41.5 µM (inactive)
same,GI50,EKVX,36.6 µM (inactive)
same,GI50,Hs-578T,24.2 µM (inactive)
same,GI50,Malme-3M,22.6 µM (inactive)
same,GI50,COLO 205,20.3 µM (inactive)
same,GI50,CAKI-1,23 µM (inactive)
same,GI50,MDA-MB-231,45.2 µM (inactive)
same,GI50,HOP-62,> 100 µM (inactive)
same,GI50,SF-295,45.8 µM (inactive)
same,GI50,SK-OV-3,> 100 µM (inactive)
same,GI50,NCI-H460,> 100 µM (inactive)
same,GI50,SF-268,> 100 µM (inactive)
same,GI50,OVCAR-8,49.3 µM (inactive)
same,GI50,OVCAR-5,54.6 µM (inactive)
same,GI50,KM12,58.6 µM (inactive)
same,GI50,A549,94 µM (inactive)
same,GI50,SK-MEL-2,> 100 µM (inactive)
same,GI50,HCT-15,40.9 µM
same,GI50,SK-MEL-28,61.5 µM (inactive)
same,GI50,MDA-N,> 100 µM (inactive)
same,GI50,UACC-257,> 100 µM (inactive)
same,GI50,SK-MEL-5,60.4 µM (inactive)
same,GI50,SN12C,68.5 µM (inactive)
same,GI50,SNB-19,55.8 µM (inactive)
same,GI50,BT-549,> 100 µM (inactive)
same,GI50,TK-10,> 100 µM (inactive)
same,GI50,HCT-116,31.8 µM (inactive)
same,GI50,OVCAR-3,62.1 µM (inactive)
same,GI50,DU-145,> 100 µM (inactive)
same,GI50,MDA-MB-435,> 100 µM (inactive)
same,GI50,K562,27 µM (inactive)
same,GI50,SW-620,47.3 µM (inactive)
same,GI50,HT-29,> 100 µM (inactive)
same,GI50,ACHN,34.9 µM (inactive)
same,GI50,MOLT-4,19.7 µM (inactive)
same,GI50,LOX IMVI,99.3 µM (inactive)
same,GI50,RPMI-8226,25.4 µM (inactive)
same,GI50,SNB-75,> 100 µM (inactive)
same,GI50,IGROV-1,1.09 µM (active)
same,GI50,HOP-92,26.5 µM (inactive)
same,GI50,NCI/ADR-RES,> 100 µM (inactive)
